Assay results taken from the NIST ThermoML archive (doi:10.1016/j.jct.2014.05.001).
± gives the expanded uncertainty stated by the source.

Settings: Ring tensiometer

surface tension liquid-gas (298.15 K): 72 ± 0.9 mN/m | surface tension liquid-gas (303.15 K): 71.1 ± 0.9 mN/m | surface tension liquid-gas (308.15 K): 70.3 ± 0.9 mN/m | surface tension liquid-gas (313.15 K): 69.4 ± 0.9 mN/m
Structure (SMILES): O [water]
